Test results taken from patent US9278942B2, “Non-steroidal compounds as androgen receptor modulators” (FLX Discoveries Oy, priority 2011, dated 2016).

Target: T1, human AR (Homo sapiens, UniProt P10275)
T1 construct: expressed in transfected cells; host or cells: COS-1
T1 sequence (P10275 1-920): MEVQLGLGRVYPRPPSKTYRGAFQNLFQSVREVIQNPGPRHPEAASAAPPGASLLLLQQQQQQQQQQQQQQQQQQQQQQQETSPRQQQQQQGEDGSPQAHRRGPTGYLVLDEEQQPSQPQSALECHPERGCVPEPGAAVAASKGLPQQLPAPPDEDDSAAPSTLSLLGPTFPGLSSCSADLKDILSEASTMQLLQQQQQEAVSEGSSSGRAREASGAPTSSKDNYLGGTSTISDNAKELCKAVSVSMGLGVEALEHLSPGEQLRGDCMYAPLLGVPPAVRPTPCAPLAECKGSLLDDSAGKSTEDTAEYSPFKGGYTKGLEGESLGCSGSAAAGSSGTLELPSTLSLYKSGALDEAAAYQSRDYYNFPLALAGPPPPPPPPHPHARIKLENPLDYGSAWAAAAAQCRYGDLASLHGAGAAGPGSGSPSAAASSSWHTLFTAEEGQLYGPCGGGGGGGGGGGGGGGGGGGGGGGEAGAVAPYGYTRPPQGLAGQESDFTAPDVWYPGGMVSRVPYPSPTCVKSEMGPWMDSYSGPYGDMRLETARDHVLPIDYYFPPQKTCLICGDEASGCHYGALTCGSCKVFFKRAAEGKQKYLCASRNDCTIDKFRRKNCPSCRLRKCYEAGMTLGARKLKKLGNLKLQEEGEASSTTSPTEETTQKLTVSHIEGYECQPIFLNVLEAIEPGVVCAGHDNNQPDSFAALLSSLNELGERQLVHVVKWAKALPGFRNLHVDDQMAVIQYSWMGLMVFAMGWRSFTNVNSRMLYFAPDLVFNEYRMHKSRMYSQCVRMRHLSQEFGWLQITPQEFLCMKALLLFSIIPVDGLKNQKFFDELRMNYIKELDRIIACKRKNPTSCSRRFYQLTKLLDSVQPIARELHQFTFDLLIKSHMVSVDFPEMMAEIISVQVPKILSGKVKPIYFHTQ
Assay: Competitive AR binding assay against [3H]-R1881 in transiently transfected COS-1 cells
Conditions: Table 1; compound 13.4 μM; [3H]-R1881 1.34 nM; complete inhibition equals 100%
Procedure: Competitive AR Binding Assay.
AR binding was measured by a competitive assay against [^3H]-R1881 (PerkinElmer) in transiently transfected COS-1 cells. One day before transfection, COS-1 cells were seeded into 2 ml of DMEM (Dulbecco's modified Eagle medium, Gipco) with 10% dextran-charcoal-treated fetal bovine serum and 0.25% (vol/vol) Penicillin-Streptomysin (Euroclone) at a density of 140×10^3 cells/well. After medium change to DMEM 2.5% FBS, the cells were transfected for 24 hours with 10 ng/well of human AR expression vector pSG5 hAR by using the TransIT method (Micrus Bio TransIT LT1, Transfection Reagent). After 36 hours, the cells where treated with tested compounds using 10000 fold molarities compared to labelled R1881 (1.34 nM). After 2 hours of incubation at 37° C., the medium was removed. The cells were removed from the wells to 150 μl of 1× phosphate buffered saline (PBS), transferred to Eppendorf tubes and centrifuged at 4° C. using 4000×g for 5 min, and then washed twice with 150 μl of PBS. The cell pellets were dissolved to 50 μl of 0.5M NaOH and incubated for 15 min at 56° C., after which the samples (three replicates for each sample compound) were transferred to liquid twinkle tubes with 3 ml of OptiPhase HiSafe 3 twinkle solution (PerkinElmer) and radioactivity of AR-bound [^3H]-R1881 determined. The results were measured with LKB WALLAC 1214 racbeta equipment. The ability of test compounds to bind AR is reported as reduction in bound radioactivity obtained with 1.34 nM [^3H]-R1881.
The results (% inhibition) were calculated as: % inhibition=100−[100×(averagecompound/average[3H]-R1881)].

Inhibition of [3H]-R1881 binding at 1.34 nM ± S.D.	Compound
14.9 ± 1.8%	CC(C)CN1C(c2ccc([N+](=O)[O-])cc2)=NOC1(C)Cc1ccccc1 (single isomer, unassigned) [Example 61a, 5-Benzyl-4-isobutyl-5-methyl-3-(4-nitro-phenyl)-4,5-dihydro-[1,2,4]oxadiazole]
30.2 ± 3.8%	Clc1ccccc1C1=NOC2CCCCC12 (single isomer, unassigned) [Example 30a, 3-(2-Chloro-phenyl)-3a,4,5,6,7,7a-hexahydro-benzo[d]-isoxazole]
55.9 ± 1.1%	COc1ccccc1C1=NOC(Cc2ccccc2)(c2ccccc2)C1 (single isomer, unassigned) [Example 12a, 5-Benzyl-3-(2-methoxyphenyl)-5-phenyl-4,5-dihydro-isoxazole]
0%	Fc1ccccc1C1=NOC2CCCCC12 (single isomer, unassigned) [Example 27b, 3-(2-Fluoro-phenyl)-3a,4,5,6,7,7a-hexahydro-benzo[d]-isoxazole]
55.7 ± 1.9%	CCCCN1C(c2cccc(Cl)c2)=NOC1(C)Cc1ccccc1 (stereo not shown) [Example 50b, 5-Benzyl-4-butyl-3-(3-chloro-phenyl)-5-methyl-4,5-dihydro-[1,2,4]oxadiazole]
66.3 ± 6.5%	Clc1ccccc1C1=NOC2CCCCC12 (single isomer, unassigned) [Example 30b, 3-(2-Chloro-phenyl)-3a,4,5,6,7,7a-hexahydro-benzo[d]-isoxazole]
0%	COc1ccc(C2=NOC(Cc3ccccc3)(c3ccccc3)C2)cc1 (single isomer, unassigned) [Example 14b, 5-Benzyl-3-(4-methoxyphenyl)-5-phenyl-4,5-dihydro-isoxazole]
31.1 ± 5.6%	COc1cccc(C2=NOC(Cc3ccccc3)(c3ccccc3)C2)c1 (single isomer, unassigned) [Example 13a, 5-Benzyl-5-phenyl-3-(3-methoxyphenyl)-4,5-dihydro-isoxazole]
32.7 ± 3.5%	CCCCN1C(Cc2ccccc2)=NOC1(C)Cc1ccccc1 (stereo not shown) [Example 55b, 3,5-Dibenzyl-4-butyl-5-methyl-4,5-dihydro-[1,2,4]oxadiazole]
29.6 ± 3.4%	COc1ccc(C2=NOC(Cc3ccccc3)(c3ccccc3)C2)cc1 (single isomer, unassigned) [Example 14a, 5-Benzyl-3-(4-methoxyphenyl)-5-phenyl-4,5-dihydro-isoxazole]
1.6 ± 6.6%	COc1cccc(C2=NOC(Cc3ccccc3)(c3ccccc3)C2)c1 (single isomer, unassigned) [Example 13b, 5-Benzyl-5-phenyl-3-(3-methoxyphenyl)-4,5-dihydro-isoxazole]
59.7 ± 2.7%	CC1(Cc2ccccc2)CC(c2ccccc2Cl)=NO1 (stereo not shown) [Example 5b, 5-Benzyl-3-(2-chlorophenyl)-5-methyl-4,5-dihydroisoxazole]
13.5 ± 1.6%	COc1ccc(CC2=NOC(C)(Cc3ccccc3)N2CC(C)C)cc1 (single isomer, unassigned) [Example 65b, 5-Benzyl-4-isobutyl-3-(4-methoxy-benzyl)-5-methyl-4,5-dihydro-[1,2,4]oxadiazole]
34.7 ± 2.7%	O=[N+]([O-])c1ccc(C2=NOC3CCCCC23)cc1 (single isomer, unassigned) [Example 34a, 3-(4-Nitro-phenyl)-3a,4,5,6,7,7a-hexahydro-benzo[d]-isoxazole]
17.0 ± 7.0%	Fc1ccccc1C1=NOC2CCCCC12 (single isomer, unassigned) [Example 27a, 3-(2-Fluoro-phenyl)-3a,4,5,6,7,7a-hexahydro-benzo[d]-isoxazole]
0%	O=[N+]([O-])c1ccc(C2=NOC3CCCCC23)cc1 (single isomer, unassigned) [Example 34b, 3-(4-Nitro-phenyl)-3a,4,5,6,7,7a-hexahydro-benzo[d]-isoxazole]
30.2 ± 6.0%	COc1ccccc1C1=NOC(Cc2ccccc2)(c2ccccc2)C1 (single isomer, unassigned) [Example 12b, 5-Benzyl-3-(2-methoxyphenyl)-5-phenyl-4,5-dihydro-isoxazole]

Same assay, conditions: Table 1; compound 13.4 μM; [3H]-R1881 1.34 nM; complete inhibition equals 100%; read-out: Inhibition of [3H]-R1881 binding at 1.34 nM ± S.D.

inhibition at 13.4 µM	Compound
29.8 ± 10.8%	CCCCN1C(c2cccc3ccccc23)=NOC1(C)Cc1ccccc1 (stereo not shown) [Example 53ab, 5-Benzyl-4-butyl-5-methyl-3-napthalen-1-yl-4,5-dihydro-[1,2,4]oxadiazole]
35.1 ± 5.8%	CCCCN1C(Cc2ccccc2)=NOC1(C)Cc1ccccc1 (stereo not shown) [Example 55a, 3,5-Dibenzyl-4-butyl-5-methyl-4,5-dihydro-[1,2,4]oxadiazole]
63.8 ± 1.8%	CCCCN1C(c2cccc(Cl)c2)=NOC1(C)Cc1ccccc1 (stereo not shown) [Example 50a, 5-Benzyl-4-butyl-3-(3-chloro-phenyl)-5-methyl-4,5-dihydro-[1,2,4]oxadiazole]
30.4 ± 2.9%	CC1(Cc2ccccc2)CC(c2ccc(C#N)cc2)=NO1 (stereo not shown) [Example 8ab, 4-(5-Benzyl-5-methyl-4,5-dihydro-isoxazol-3-yl)-benzonitrile]
31.4 ± 1.9%	CC1(Cc2ccccc2)CC(c2cccc(Cl)c2)=NO1 (stereo not shown) [Example 6ab, 5-Benzyl-3-(3-chlorophenyl)-5-methyl-4,5-dihydroisoxazole]
51 ± 2.4%	CC1(Cc2ccccc2)CC(c2ccc(Cl)cc2)=NO1 (stereo not shown) [Example 7ab, 5-Benzyl-3-(4-chlorophenyl)-5-methyl-4,5-dihydro-isoxazole]
17.8 ± 2.4%	CC(C)CN1C(CCc2ccccc2)=NOC1(C)Cc1ccccc1 (stereo not shown) [Example 66ab, 5-Benzyl-4-isobutyl-5-methyl-3-phenethyl-4,5-dihydro-[1,2,4]oxadiazole]
28.2 ± 3%	CCCCN1C(c2ccc3ccccc3c2)=NOC1(C)Cc1ccccc1 (stereo not shown) [Example 54ab, 5-Benzyl-4-butyl-5-methyl-3-napthalen-2-yl-4,5-dihydro-[1,2,4]oxadiazole]
64.2 ± 2.2%	COc1cccc(C2=NOC(C)(Cc3ccccc3)C2)c1 (stereo not shown) [Example 2ab, 5-Benzyl-3-(3-methoxyphenyl)-5-methyl-4,5-dihydro-isoxazole]
14.7 ± 1%	CC(C)CN1C(CCCc2ccccc2)=NOC1(C)Cc1ccccc1 (stereo not shown) [Example 68ab, 5-Benzyl-4-isobutyl-5-methyl-3-(3-phenyl-propyl)-4,5-dihydro-[1,2,4]oxadiazole]
48.7 ± 3.3%	CCCCN1C(CCc2ccccc2)=NOC1(C)Cc1ccccc1 (stereo not shown) [Example 57ab, 5-Benzyl-4-butyl-5-methyl-3-phenethyl-4,5-dihydro-[1,2,4]oxadiazole]
42.7 ± 6.6%	CC1(Cc2ccccc2)CC(c2ccccc2Cl)=NO1 (stereo not shown) [Example 5a, 5-Benzyl-3-(2-chlorophenyl)-5-methyl-4,5-dihydroisoxazole]
69.9 ± 3.3%	CC1(Cc2ccccc2)CC(c2ccccc2F)=NO1 (stereo not shown) [Example 4ab, 5-Benzyl-3-(2-fluorophenyl)-5-methyl-4,5-dihydro-isoxazole]
8.2 ± 1.3%	CCCCN1C(CCc2ccc(OC)cc2)=NOC1(C)Cc1ccccc1 (stereo not shown) [Example 58ab, 5-Benzyl-4-butyl-3-[2-(4-methoxy-phenyl)-ethyl]-5-methyl-4,5-dihydro-[1,2,4]oxadiazole]
